# Source: patent publication US8420119B2, “Drug composition for treating tumor with polymeric micelle encapsulating anti-neoplastic” (Industrial Technology Research Institute, priority 2009, dated 2013)
# Legend:
# [1] = system: Human colon cancer HT29 cells; assay: In vivo pharmaceutical efficiency comparison of CCP201 with free CPT11, HT29 tumor; parameters: species or system immunodeficiency mice
# Method: Human colon cancer HT29 cells were implanted subcutaneously at the dorsal muscles of immunodeficiency mice. […] The administration frequency was twice a week and five times in total. The tumor size and weight of each mouse was monitored. The tumor size was measured and calculated according to the formula V=½ ab^2, wherein V is the volume of the tumor, a is the longest diameter of the tumor, and b is the shortest diameter of the tumor.
# [2] = system: Human colon cancer HT29 cells; assay: In vivo pharmaceutical efficiency comparison of SCP201 with free CPT11, HT29 tumor; parameters: species or system immunodeficiency mice
# Method: (§1) Human colon cancer HT29 cells were implanted subcutaneously at the dorsal muscles of immunodeficiency mice. […] The administration frequency was twice a week and five times in total. The tumor size and weight of each mouse was monitored. The tumor size was measured and calculated according to the formula V=1/2 ab^2, wherein V is the volume of tumor, a is the longest diameter of the tumor, and b is the shortest diameter of the tumor. Human colon cancer Colo205 cells were also tested by the same method described above, except that the mice were divided into 6 groups.
# [3] = system: Human colon cancer Colo205 cells; assay: In vivo pharmaceutical efficiency comparison of SCP201 with free CPT11, Colo205 tumor; parameters: species or system immunodeficiency mice
# Method: as §1
# A549 = assay: MTT assay A549; type: cell-based, human; details: Lung, A549, 72 hours
# Method: (§2) Various human cancer lines, such as A549, AS2, and H460, were implanted onto multi-well plates and Dulbecco's Modified Eagle Media (high glucose) with 10% of fetal bovine serum and 1% of P/S being added to each well. […] Then a 20 μL of 0.5 mg/ml MTT (3-(4,5-dimethylthiazol-2-yl)-2,5-diphenyltetrazolium bromide) solution was added to each well to start the reaction. After 2 hours, the suspension of each well was removed and DMSO was added into the well to dissolve formazan, which was formed during the reaction. The living cell concentration was then obtained by analyzing the OD570 and OD600 data of each well.
# AS2 = assay: MTT assay AS2; type: cell-based, human; details: Lung, AS2, 72 hours
# Method: as §2
# H460 = assay: MTT assay H460; type: cell-based, human; details: Lung, H460, 72 hours
# Method: as §2
# HT29 = assay: MTT assay HT29; type: cell-based, human; details: Colorectal, HT29, 72 hours
# Method: as §2
# Colo 205 = assay: MTT assay Colo 205; type: cell-based, human; details: Colorectal, Colo 205, 72 hours
# Method: as §2
# OVCAR-3 = assay: MTT assay OVCAR-3; type: cell-based, human; details: Ovarian, OVCAR-3, 72 hours
# Method: as §2
# RPMI2650 = assay: MTT assay RPMI2650; type: cell-based, human; details: Nasalseptum, RPMI2650, 72 hours
# Method: as §2
# SCC-25 = assay: MTT assay SCC-25; type: cell-based, human; details: Tongue, SCC-25, 72 hours
# Method: as §2
# [4] = Release test using dialysis bag; type: physicochemical; details: dialysis against PBS pH 7.4, 37° C.
# Method: A 50 μL solution of a pharmaceutical composition, which was prepared according to the method as set forth above, was added into a dialysis bag having a molecular weight cutoff of about 3,500 Daltons, and then was dialyzed against a 50 ml phosphate buffered saline (PBS) (pH 7.4) at 37° C. After 1, 2, 4, and 8 hours of dialysis, 250 μL out-of-bag buffers were taken respectively, and then each was then mixed with 750 μL methanol (in 0.6N HCl). The quantity of each drug, which was released from the polymeric micelle and then dialyzed into the out-of-bag buffer, was determined by HPLC. A 50 μL CPT containing DMSO solution (CPT-DMSO) was used as a control.
# [5] = Direct dilution test (remained lactone form); type: physicochemical; details: PBS pH 7.4, 37° C.
# Method: A 150 μL solution of a pharmaceutical composition in accordance with the present disclosure, which was prepared according to the method as set forth above, was mixed with 1350 μL of PBS (pH 7.4), and then incubated at 37° C. After 1, 2, 4, and 8 hours of incubation, 10 μL incubated solutions were taken respectively, and each was mixed with 990 μL of methanol. The quantity of lactone form CPT or SN38 in the mixtures was determined by HPLC. A 150 μL CPT containing DMSO solution (CPT-DMSO) was used as a control.
# [6] = In vivo kinetic test of CPT; parameters: species or system SD mice; details: SD, mouse, plasma
# Method: The concentrations of lactone form CPT in bloods over the time were then determined by HPLC.
# T1/2 (hr), AUCINF(hr*ng/ml), CL(mL/hr/kg), and Vss (mL/kg) in Table 2 represent half-life time, area under the curve to infinity, clearance, and volume of distribution at steady state, and the units thereof, respectively. The n represents sample number. These parameters can be measured and/or calculated according to the techniques known in the art.
# [7] = dose 10 mg/kg, total dose 50 mg/kg
# [8] = dose 40 mg/kg, total dose 200 mg/kg
# [9] = iv, lactone form CPT, 1 mg/kg vein injection
structure (smiles),measurement,setting,value
"CCc1c2c(nc3ccc(OC(=O)N4CCC(N5CCCCC5)CC4)cc13)-c1cc3c(c(=O)n1C2)COC(=O)[C@]3(O)CC [CPT11, 7-ethyl-10-[4-(1-piperidino)-1-piperidono]carbonyloxy camptothecin]",Tumor Size (mm^3) Vol.,"[1]; day 0, 10 mg/kg",469.6 mm^3
same,Tumor Size (mm^3) Vol.,"[1]; day 4, 10 mg/kg",745.8 mm^3
same,Tumor Size (mm^3) Vol.,"[1]; day 8, 10 mg/kg",723.4 mm^3
same,Tumor Size (mm^3) Vol.,"[1]; day 11, 10 mg/kg",740.8 mm^3
same,Tumor Size (mm^3) Vol.,"[1]; day 13, 10 mg/kg",786.0 mm^3
same,Tumor Size (mm^3) Vol.,"[1]; day 15, 10 mg/kg",757.5 mm^3
same,Tumor Size (mm^3) Vol.,"[1]; day 18, 10 mg/kg",879.8 mm^3
same,Tumor Size (mm^3) Vol.,"[1]; day 20, 10 mg/kg",902.7 mm^3
same,Tumor Size (mm^3) Vol.,"[1]; day 22, 10 mg/kg",927.3 mm^3
same,Tumor Size (mm^3) Vol.,"[1]; day 27, 10 mg/kg",1217.6 mm^3
same,Maximum weight loss,[1]; [7],27 days
same,Maximum weight loss %,[1]; [7],17.3%
same,TIR % (day 21),[1]; [7],35%
same,Tumor Size (mm^3) Vol.,"[2]; day 0, 10 mg/kg",142.8 mm^3
same,Tumor Size (mm^3) Vol.,"[2]; day 3, 10 mg/kg",227.8 mm^3
same,Tumor Size (mm^3) Vol.,"[2]; day 6, 10 mg/kg",292.7 mm^3
same,Tumor Size (mm^3) Vol.,"[2]; day 9, 10 mg/kg",384.2 mm^3
same,Tumor Size (mm^3) Vol.,"[2]; day 12, 10 mg/kg",492.0 mm^3
same,Tumor Size (mm^3) Vol.,"[2]; day 15, 10 mg/kg",666.0 mm^3
same,Tumor Size (mm^3) Vol.,"[2]; day 18, 10 mg/kg",853.5 mm^3
same,Tumor Size (mm^3) Vol.,"[2]; day 21, 10 mg/kg",997.7 mm^3
same,Tumor Size (mm^3) Vol.,"[2]; day 24, 10 mg/kg",1308.5 mm^3
same,Tumor Size (mm^3) Vol.,"[2]; day 27, 10 mg/kg",1732.2 mm^3
same,Maximum weight loss,[2]; [7],27 days
same,Maximum weight loss %,[2]; [7],9.4%
same,TIR % (day 21),[2]; [7],23%
same,Tumor Size (mm^3) Vol.,"[3]; day 0, 40 mg/kg",152.1 mm^3
same,Tumor Size (mm^3) Vol.,"[3]; day 1, 10 mg/kg",175.1 mm^3
same,Tumor Size (mm^3) Vol.,"[3]; day 1, 40 mg/kg",184.6 mm^3
same,Tumor Size (mm^3) Vol.,"[3]; day 3, 10 mg/kg",192.0 mm^3
same,Tumor Size (mm^3) Vol.,"[3]; day 3, 40 mg/kg",239.3 mm^3
same,Tumor Size (mm^3) Vol.,"[3]; day 6, 10 mg/kg",215.0 mm^3
same,Tumor Size (mm^3) Vol.,"[3]; day 6, 40 mg/kg",215.0 mm^3
same,Tumor Size (mm^3) Vol.,"[3]; day 8, 10 mg/kg",251.2 mm^3
same,Tumor Size (mm^3) Vol.,"[3]; day 8, 40 mg/kg",184.7 mm^3
same,Tumor Size (mm^3) Vol.,"[3]; day 10, 10 mg/kg",262.1 mm^3
same,Tumor Size (mm^3) Vol.,"[3]; day 10, 40 mg/kg",161.7 mm^3
same,Tumor Size (mm^3) Vol.,"[3]; day 13, 10 mg/kg",263.5 mm^3
same,Tumor Size (mm^3) Vol.,"[3]; day 13, 40 mg/kg",110.2 mm^3
same,Tumor Size (mm^3) Vol.,"[3]; day 15, 10 mg/kg",274.1 mm^3
same,Tumor Size (mm^3) Vol.,"[3]; day 15, 40 mg/kg",70.9 mm^3
same,Tumor Size (mm^3) Vol.,"[3]; day 17, 10 mg/kg",293.7 mm^3
same,Tumor Size (mm^3) Vol.,"[3]; day 17, 40 mg/kg",59.1 mm^3
same,Tumor Size (mm^3) Vol.,"[3]; day 20, 10 mg/kg",301.4 mm^3
same,Tumor Size (mm^3) Vol.,"[3]; day 20, 40 mg/kg",37.8 mm^3
same,Maximum weight loss %,[3]; [7],4.2%
same,Maximum weight loss (day),[3]; [7],(18) day
same,TIR % (day 20),[3]; [7],61%
same,Maximum weight loss %,[3]; [8],3.7%
same,Maximum weight loss (day),[3]; [8],(8) day
same,TIR % (day 20),[3]; [8],95%
same,IC50,A549,13340 ± 1330 µg/mL
same,IC50,AS2,4200 ± 480 µg/mL
same,IC50,H460,1890 ± 140 µg/mL
same,IC50,HT29,1900 µg/mL
same,IC50,Colo 205,6840 ± 990 µg/mL
same,IC50,OVCAR-3,16750 ± 1430 µg/mL
same,IC50,RPMI2650,1470 ± 260 µg/mL
same,IC50,SCC-25,12350 ± 1160 µg/mL
"CC[C@@]1(O)C(=O)OCc2c1cc1n(c2=O)Cc2cc3ccccc3nc2-1 [CPT-DMSO, camptothecin]",percentage of released CPT/SN38,[4]; 1 hour,48.2%
same,percentage of released CPT/SN38,[4]; 2 hours,73.9%
same,percentage of released CPT/SN38,[4]; 4 hours,87.2%
same,percentage of remained lactone form CPT and SN38,[5]; 2 hours,26.4%
same,percentage of remained lactone form CPT and SN38,[5]; 4 hours,18.1%
same,concentration at 0.25 h,"[6]; intravenous, 0.25 hour, 1 mg/kg CPT vein injection, read-out: lactone form CPT in plasma",19.4 ng/mL
same,concentration at 0.5 h,"[6]; intravenous, 0.5 hour, 1 mg/kg CPT vein injection, read-out: lactone form CPT in plasma",11.6 ng/mL
same,concentration at 1 h,"[6]; intravenous, 1 hour, 1 mg/kg CPT vein injection, read-out: lactone form CPT in plasma",3.1 ng/mL
same,concentration at 2 h,"[6]; intravenous, 2 hours, 1 mg/kg CPT vein injection, read-out: lactone form CPT in plasma",0.3 ng/mL
same,AUC(0-inf),[6]; [9],16 ± 6 ng·h/mL
same,clearance,[6]; [9],1160 mL/min/kg
same,half-life,[6]; [9],15 ± 6 min
same,Vd,"[6]; iv, lactone form CPT, 1 mg/kg vein injection, read-out: Vss",23.9 ± 6.2 L/kg
